Bounds are passed on as bounds.

What is called EC50 is the midpoint of the concentration-response curve.

This test has as its system FSK-4 cells. The experiment in a line: Assay (I): Glucose utilisation in a human epithelia cell line (FSK4 cells), D-(6-3H(N))-glucose. Format: cell-based. The following applies: 24 hours incubation, Hill equation, read-out: GlucosFSK4 EC50. The method, then: Assay (I): Glucose Utilisation in a Human Epithelia Cell Line (FSK4 cells)
The ^3H-proton will first be released in the TCA cyclus and transported to the respiratory chain where it will be incorporated into water. The water is thereafter separated from the D-(6-^3H(N))-glucose by evaporation.
FSK-4 cells obtained from ATCC (Maryland, USA), are cultured in growth medium (McCoy's medium with the following addition 100 units/ml penicillin and streptomycin and 10% FCS (fetal calf serum)) at 37° C. and 5% CO2.
The cells are then incubated for another 24 hours at 37° C. and 5% CO2.
The half maximal concentration (EC50) and maximal efficacy (Emax) are calculated using the Hill equation in GraphPad Prism 3.0 (GraphPad software, Inc.). […] From the percentage increase in glucose utilisation the linear slope is calculated using the Michaelis-Menten equation.
For `CC(C)(C)c1cc(/C=C(\C#N)S(=O)(=O)c2ccccn2)cc(C(C)(C)C)c1O` [Example 3, (E)-3-(3,5-Di-tert!-butyl-4-hydroxy-phenyl)-2-(pyridine-2-sulfonyl)-acrylonitrile], the EC50 is 9 µM.
The value for `N#C/C(=C\c1ccc(O)c([N+](=O)[O-])c1)S(=O)(=O)c1ccc(Cl)cc1` [Example 4, (E)-2-(4-Chloro-benzenesulfonyl)-3-(4-hydroxy-3-nitro-phenyl)-acrylonitrile] was more than 10 µM.
In the case of `Cn1ccnc1S(=O)(=O)/C(C#N)=C/c1cc(C(C)(C)C)c(O)c(C(C)(C)C)c1` [Example 6, (E)-3-(3,5-Di-tert-butyl-4-hydroxy-phenyl)-2-(1-methyl-1H-imidazole-2-sulfonyl)-acrylonitrile], the EC50 is 8.4 µM.
`C/C(=C(/C#N)S(=O)(=O)c1ccc(Cl)cc1)c1cc(C(C)(C)C)c(O)c(C(C)(C)C)c1` [Example 7, (E/Z)-2-(4-Chloro-benzenesulfonyl)-3-(3,5-di-tert-butyl-4-hydroxy-phenyl)-but-2-enenitrile]: the EC50 amounted to 10 µM.
The value for `CC(C)(C)c1cc(/C=C(\C#N)S(=O)(=O)c2ccc([N+](=O)[O-])cc2)cc(C(C)(C)C)c1O` [Example 9, (E)-3-(3,5-Di-tert-butyl-4-hydroxy-phenyl)-2-(4-nitro-benzenesulfonyl)-acrylonitrile] was 1.4 µM.
Regarding `CC(C)(C)c1cc(/C=C(\C#N)S(=O)(=O)c2ccc(OC(F)(F)F)cc2)cc(C(C)(C)C)c1O` [Example 11, (E)-3-(3,5-Di-tert-butyl-4-hydroxy-phenyl)-2-(4-trifluoromethoxy-benzenesulfonyl)-acrylonitrile], the EC50 came to 2.2 µM.
In the case of `CC(C)(C)c1cc(/C=C(\C#N)S(=O)(=O)c2ccc(Cl)cc2)cc([N+](=O)[O-])c1O` [Example 12, (E)-3-(3-tert-Butyl-4-hydroxy-5-nitro-phenyl)-2-(4-chloro-benzenesulfonyl)-acrylonitrile], the EC50 was 6 µM.
For `COCCN(CCOC)C(=O)c1ccc(S(=O)(=O)/C(C#N)=C/c2cc(C(C)(C)C)c(O)c(C(C)(C)C)c2)cc1` [Example 13], the EC50 was determined as 4 µM.
With `CN(C)C(=O)c1ccc(S(=O)(=O)/C(C#N)=C/c2cc(C(C)(C)C)c(O)c(C(C)(C)C)c2)cc1` [Example 14], the EC50 was 2.3 µM.
The value for `CC(O)CN(CC(C)O)C(=O)c1ccc(S(=O)(=O)/C(C#N)=C/c2cc(C(C)(C)C)c(O)c(C(C)(C)C)c2)cc1` (stereo not drawn) [Example 15] was 10 µM; that for `CN1CCN(C(=O)c2ccc(S(=O)(=O)/C(C#N)=C/c3cc(C(C)(C)C)c(O)c(C(C)(C)C)c3)cc2)CC1` [Example 16, (E)-3-(3,5-Di-tert-butyl-4-hydroxy-phenyl)-2-[4-(4-methyl-piperazine-1-carbonyl)-benzenesulfonyl]-acrylonitrile] was 3.2 µM; that for `CC(C)(C)c1cc(/C=C(\C#N)S(=O)(=O)c2ccc(C(=O)NCCO)cc2)cc(C(C)(C)C)c1O` [Example 17] was 7.4 µM.
The value for `CC1CN(C(=O)c2ccc(S(=O)(=O)/C(C#N)=C/c3cc(C(C)(C)C)c(O)c(C(C)(C)C)c3)cc2)CC(C)O1` (stereo not drawn) [Example 18, (E)-3-(3,5-Di-tert-butyl-4-hydroxy-phenyl)-2-[4-(2,6-dimethyl-morpholine-4-carbonyl)-benzenesulfonyl]-acrylonitrile] was 1.7 µM; that for `CC(C)(C)c1cc(/C=C(\C#N)S(=O)(=O)c2ccc(C(=O)N3CCOCC3)cc2)cc(C(C)(C)C)c1O` [Example 19, (E)-3-(3,5-Di-tert-butyl-4-hydroxy-phenyl)-2-[4-(morpholine-4-carbonyl)-benzenesulfonyl]-acrylonitrile] was 5.1 µM; that for `CC(C)(C)c1cc(/C=C(\C#N)S(=O)(=O)c2ccc(N)cc2)cc(C(C)(C)C)c1O` [Example 20, (E)-2-(4-Amino-benzenesulfonyl)-3-(3,5-di-tert-butyl-4-hydroxy-phenyl)-acrylonitrile] was 2.8 µM.
The value for `CC(C)(C)c1cc(/C=C(\C#N)S(=O)(=O)/C(C#N)=C/c2cc(C(C)(C)C)c(O)c(C(C)(C)C)c2)cc(C(C)(C)C)c1O` [Example 22] was 0.4 µM.
As to `CC(C)(C)c1cc(/C=C(\C#N)S(=O)(=O)c2cccs2)cc(C(C)(C)C)c1O` [Example 23, (E)-3-(3,5-Di-tert-butyl-4-hydroxy-phenyl)-2-(thiophene-2-sulfonyl)-acrylonitrile], the half-maximal effective concentration (EC50) came to 1.2 µM.
The value for `CC(C)(C)c1cc(/C=C(\C#N)S(=O)(=O)Cc2ccc(Cl)cc2)cc(C(C)(C)C)c1O` [Example 24, (E)-2-(4-Chloro-phenylmethanesulfonyl)-3-(3,5-di-tert-butyl-4-hydroxy-phenyl)-acrylonitrile] was 0.7 µM; that for `CC(C)(C)c1cc(/C=C(\C#N)S(=O)(=O)c2ccc(C(=O)N(CCO)CCO)cc2)cc(C(C)(C)C)c1O` [Example 26] was 3.7 µM; that for `CC1COCC(C)N1C(=O)c1ccc(S(=O)(=O)/C(C#N)=C/c2cc(C(C)(C)C)c(O)c(C(C)(C)C)c2)cc1` (stereo not drawn) [Example 27, 3-(3,5-Di-tert-butyl-4-hydroxy-phenyl)-2-[4-(3,5-dimethyl-morpholine-4-carbonyl)-benzenesulfonyl]-acrylonitrile] was 3.5 µM.
Turning to `CC(C)(C)c1ccc(S(=O)(=O)/C(C#N)=C/c2cc(C(C)(C)C)c(O)c(C(C)(C)C)c2)cc1` [Example 29, 2-(4-tert-Butyl-benzenesulfonyl)-3-(3,5-di-tert-butyl-4-hydroxy-phenyl)-acrylonitrile], the EC50 stood at 2.9 µM.
The value for `CC(C)(C)c1cc(/C=C(\C#N)S(=O)(=O)c2cccc3ccccc23)cc(C(C)(C)C)c1O` [Example 30, 3-(3,5-Di-tert-butyl-4-hydroxy-phenyl)-2-(naphthalene-1-sulfonyl)-acrylonitrile] was 1 µM; that for `CC(C)(C)c1cc(/C=C(\C#N)S(=O)(=O)Cc2ccco2)cc(C(C)(C)C)c1O` [Example 31, 3-(3,5-Di-tert-butyl-4-hydroxy-phenyl)-2-(furan-2-ylmethanesulfonyl)-acrylonitrile] was 2 µM.
Turning to `Cc1ccc(S(=O)(=O)/C(C#N)=C/c2cc(C(C)(C)C)c(O)c(C(C)(C)C)c2)cc1` [Example 33, 3-(3,5-Di-tert-butyl-4-hydroxy-phenyl)-2-(toluene-4-sulfonyl)-acrylonitrile], the EC50 turned out to be 1.1 µM.
Regarding `CC(C)c1ccc(S(=O)(=O)/C(C#N)=C/c2cc(C(C)(C)C)c(O)c(C(C)(C)C)c2)cc1` [Example 34, 3-(3,5-Di-tert-butyl-4-hydroxy-phenyl)-2-(4-isopropyl-benzenesulfonyl)-acrylonitrile], the EC50 stood at 2.3 µM.
The value for `CC(C)(C)c1cc(C=C(C#N)S(=O)(=O)c2cc(C(C)(C)C)c(O)c(C(C)(C)C)c2)cc(C(C)(C)C)c1O` [Example 35, 2-(3,5-Di-tert-butyl-4-hydroxy-benzenesulfonyl)-3-(3,5-di-tert-butyl-4-hydroxy-phenyl)-acrylonitrile] was 3.3 µM; that for `CC(C)(C)c1cc(/C=C(\C#N)S(=O)(=O)c2ccc(S(C)(=O)=O)cc2)cc(C(C)(C)C)c1O` [Example 38, 3-(3,5-Di-tert-butyl-4-hydroxy-phenyl)-2-(4-methanesulfonyl-benzenesulfonyl)-acrylonitrile] was 0.7 µM.
The value for `CC(C)(C)c1cc(/C=C(\C#N)S(=O)(=O)c2cccc(OC(F)(F)F)c2)cc(C(C)(C)C)c1O` [Example 39, 3-(3,5-Di-tert-butyl-4-hydroxy-phenyl)-2-(3-trifluoromethoxy-benzenesulfonyl)-acrylonitrile] was 0.5 µM; that for `CC(C)(C)c1cc(/C=C(\C#N)S(=O)(=O)c2ccccc2OC(F)(F)F)cc(C(C)(C)C)c1O` [Example 40, 3-(3,5-Di-tert-butyl-4-hydroxy-phenyl)-2-(2-trifluoromethoxy-benzenesulfonyl)-acrylonitrile] was 0.6 µM; that for `CC(C)(C)c1cc(/C=C(\C#N)S(=O)(=O)c2ccc(Cl)cn2)cc(C(C)(C)C)c1O` [Example 41, 2-(5-Chloro-pyridine-2-sulfonyl)-3-(3,5-di-tert-butyl-4-hydroxy-phenyl)-acrylonitrile] was 0.9 µM.
The value for `CC(C)(C)c1cc(/C=C(\C#N)S(=O)(=O)c2ccccc2C(=O)O)cc(C(C)(C)C)c1O` [Example 42] was 9 µM; that for `CC(C)(C)c1cc(/C=C(\C#N)S(=O)(=O)c2ccccc2C(=O)N2CCOCC2)cc(C(C)(C)C)c1O` [Example 44, 3-(3,5-Di-tert-butyl-4-hydroxy-phenyl)-2-[2-(morpholine-4-carbonyl)-benzenesulfonyl]-acrylonitrile] was 3 µM; that for `CC(C)(C)c1cc(/C=C(\C#N)S(=O)(=O)c2cccc(C(=O)N3CCOCC3)c2)cc(C(C)(C)C)c1O` [Example 45, 3-(3,5-Di-tert-butyl-4-hydroxy-phenyl)-2-[3-(morpholine-4-carbonyl)-benzenesulfonyl]-acrylonitrile] was 3 µM.
As for `COc1ccc(S(=O)(=O)/C(C#N)=C/c2cc(C(C)(C)C)c(O)c(C(C)(C)C)c2)cc1` [Example 46, 3-(3,5-Di-tert-butyl-4-hydroxy-phenyl)-2-(4-methoxy-benzenesulfonyl)-acrylonitrile], the EC50 was 1 µM.
The value for `COc1cccc(S(=O)(=O)/C(C#N)=C/c2cc(C(C)(C)C)c(O)c(C(C)(C)C)c2)c1` [Example 47, 3-(3,5-Di-tert-butyl-4-hydroxy-phenyl)-2-(3-methoxy-benzenesulfonyl)-acrylonitrile] was 0.8 µM; that for `COc1ccc(S(=O)(=O)/C(C#N)=C/c2cc(C(C)(C)C)c(O)c(C(C)(C)C)c2)cc1OC` [Example 48, 3-(3,5-Di-tert-butyl-4-hydroxy-phenyl)-2-(3,4-dimethoxy-benzenesulfonyl)-acrylonitrile] was 1.5 µM.

The values are drawn from patent US20060128662A1, “Novel compounds for treatment of obesity” (Novo Nordisk A/S, priority 2003, published 2006).
